According to patent US11957696B2 (Propella Therapeutics, Inc., priority 2021, dated 2024):

What was measured:
[1] = format: physicochemical
Method: The solids were filtered and analyzed by XRD to determine the resulting form(s). The solvents used in this study include: water, acetonitrile, isopropyl ether/acetonitrile (1:4), 2-butanol/water (1:1), 1-propanol/water (1:1), t-butanol/water (1:1), ethanol/water (1:1), THF/water (1:1), acetone/water (1:1), dioxane/water (1:1), 2-butanone/water (1:1), methanol, DMF/water (1:1), ethyl acetate/water (1:1), and heptane.
A competitive study was also carried out. […] Samples were stirred for 3 days and filtered.

[2] = IM injection of aqueous suspension and vegetable oil solution of abiraterone acetate; format: in vivo; settings: vegetable oil solution compared with aqueous suspension, rats
Method: Typically, the abiraterone prodrugs of the present disclosure are formulated as a non-aqueous solution or suspension. […] For example, as detailed herein, IM injections of an aqueous suspension and a vegetable oil solution of the abiraterone acetate prodrug were evaluated in rats. […] Accordingly, in some embodiments, the abiraterone prodrug formulations herein can include an abiraterone prodrug of the present disclosure (e.g., compound of Formula I or II) dissolved or dispersed in a pharmaceutically acceptable carrier. In some embodiments, the pharmaceutically acceptable carrier can be any suitable nonaqueous vehicle suitable for injection, such as those described in U.S. Pharmacopeia. In some embodiments, the pharmaceutically acceptable carrier can be a pharmaceutically acceptable oil, e.g., a vegetable oil, castor oil, corn oil, sesame oil, cottonseed oil, peanut oil, poppy seed oil, tea seed oil, or soybean oil. In some embodiments, the pharmaceutically acceptable oil can be oils (e.g., described herein), suitable for use as vehicles for injection, e.g., meeting the criteria as described in the corresponding U.S. Pharmacopeia monograph. In some embodiments, the pharmaceutically acceptable oil can be an oil of vegetable origin suitable for use as vehicles for injection. […]

## CCCCCCCCCC(=O)O[C@H]1CC[C@@]2(C)C(=CC[C@@H]3[C@@H]2CC[C@]2(C)C(c4cccnc4)=CC[C@@H]32)C1 [Form A, abiraterone decanoate]
[1]
  thermodynamic stability of polymorph: thermodynamically stable form under ambient conditions

## CC(=O)O[C@H]1CC[C@@]2(C)C(=CC[C@@H]3[C@@H]2CC[C@]2(C)C(c4cccnc4)=CC[C@@H]32)C1 [abiraterone acetate, (3β)-17-(3-Pyridyl)androsta-5, acetate]
[2]
  blood plasma levels and duration of exposure of abiraterone: highest blood plasma levels and the longest duration of exposure
